ChEMBL document CHEMBL5614437, “Antibacterial and Anti-Inflammatory Activity of Branched Peptides Derived from Natural Host Defense Sequences” (J Med Chem, 2024)
Values after ≈ are worked out from the molar mass of the structure shown. Active and inactive are the calls of the source. The rule behind the calls is not given here. Where a SMILES comes first, the peptide text is derived from it. Bridges are numbered along the chain shown (N, C = ends). Roman numbers before positions name the chains, in order.

Columns and labels:
Escherichia coli [1] = assay: Antibacterial activity against Escherichia coli TG1 incubated for 12 hrs by microdilution method; assay type: functional
[2] = Stability of compound in human serum at 180 uM measured after 4 hrs by HPLC-MS analysis; assay type: ADME, cell-free
[3] = Stability of compound in human serum at 180 uM measured after 24 hrs by HPLC-MS analysis; assay type: ADME, cell-free
Klebsiella pneumoniae [4] = assay: Antibiofilm activity against Klebsiella pneumoniae ATCC43816 assessed as inhibition of biofilm formation incubated for 24 hrs by absorbance based analysis; assay type: functional
Cell membrane [5] = assay: Induction of cytoplasmic membrane permeabilization in Escherichia coli TG1 assessed as enlargement of bacterial cells at 2 times of MIC measured after 30 to 60 mins by SEM analysis; assay type: cell membranes; conditions: time 30-60 min
Cell membrane [6] = assay: Induction of cytoplasmic membrane permeabilization in Escherichia coli TG1 assessed as loss of surface smoothness at 2 times of MIC measured after 30 to 60 mins by SEM analysis; conditions: time 30-60 min
Cell membrane [7] = assay: Induction of cytoplasmic membrane permeabilization in Escherichia coli TG1 assessed as increase in fluorescence incubated for 100 to 120 mins by PI/Sytox green dye based analysis; conditions: dose 1.5-3 µM, time 100-120 min
Klebsiella pneumoniae [8] = assay: Antibacterial activity against colistin-resistant Klebsiella pneumoniae incubated for 12 hrs by microdilution method; assay type: functional
Escherichia coli [9] = assay: Antibiofilm activity against Escherichia coli TG1 assessed as inhibition of biofilm formation incubated for 24 hrs by absorbance based analysis; assay type: functional
Lipopolysaccharide (LPS) = assay: Binding affinity to biotin-tagged LPS (unknown origin) preincubated for 30 mins followed by compound addition and 30 mins of incubation with streptavidin-POD by ELISA based microplate spectrophotometer; assay type: subcellular; conditions: dose 1-10 µg/ml
Enterococcus faecalis = assay: Antibacterial activity against Enterococcus faecalis 51299 incubated for 12 hrs by microdilution method; assay type: functional
Cell membrane [10] = assay: Induction of cytoplasmic membrane permeabilization in Escherichia coli TG1 assessed as increase in fluorescence at 2 times of MIC measured after 10 mins by PI/Sytox green dye based analysis; assay type: cell membranes
Erythrocyte [11] = assay: Hemolytic activity in human RBC assessed as hemolysis at 10 times of MIC incubated for 2 hrs by absorbance based plate reader analysis; assay type: toxicity, cell-based
RAW264.7 = assay: Cytotoxicity against mouse RAW264.7 cells assessed as cell killing at 200 uM incubated for 4 to 24 hrs by crystal violet staining based analysis relative to control; assay type: toxicity; conditions: raw264.7, 200 µM, time 4-24 hrs
Pseudomonas aeruginosa = assay: Antibacterial activity against Pseudomonas aeruginosa ATCC 27853 incubated for 12 hrs by microdilution method; assay type: functional
Escherichia coli [12] = assay: Antibiofilm activity against 24 hrs preformed biofilm in Escherichia coli TG1 assessed as reduction in preformed biofilm incubated for 14 hrs by absorbance based analysis; assay type: functional
Cell membrane [13] = assay: Induction of cytoplasmic membrane permeabilization in Escherichia coli TG1 assessed as increase in fluorescence at MIC measured after 40 to 50 mins by PI/Sytox green dye based analysis; conditions: time 40-50 min
Escherichia coli [14] = assay: Antibacterial activity against Escherichia coli clinical isolate LC711/14 incubated for 12 hrs by microdilution method; assay type: functional
Staphylococcus aureus = assay: Antibacterial activity against Staphylococcus aureus USA300 incubated for 12 hrs by microdilution method; assay type: functional
Klebsiella pneumoniae [15] = assay: Antibacterial activity against Klebsiella pneumoniae ATCC43816 incubated for 12 hrs by microdilution method; assay type: functional
Klebsiella pneumoniae [16] = assay: Antibiofilm activity against 24 hrs preformed biofilm in Klebsiella pneumoniae ATCC43816 assessed as reduction in preformed biofilm incubated for 14 hrs by absorbance based analysis; assay type: functional
Cell membrane [17] = assay: Induction of cytoplasmic membrane permeabilization in Escherichia coli TG1 assessed as wrinkling of membrane surface at 2 times of MIC measured after 30 to 60 mins by SEM analysis; conditions: time 30-60 min
Erythrocyte [18] = assay: Hemolytic activity in human RBC assessed as hemolysis at […] incubated for 2 hrs by absorbance based plate reader analysis; assay type: toxicity, cell-based
Erythrocyte [19] = assay: Hemolytic activity in human RBC assessed as hemolysis at ~15 uM incubated for 2 hrs by absorbance based plate reader analysis; assay type: toxicity, cell-based

I: H-KRLWHKVGPFKK-NH2 / II: H-KRLWHKVGPFK / III: H-KRLWHKVGPF / IV: H-KRLWHKVGPF (amide I:11-IV:C, I:12-II:C, II:11-III:C)
MIC (Escherichia coli [1]): 12.5 µM

CC[C@H](C)[C@H](NC(=O)[C@H](CO)NC(=O)[C@H](CCCCN)NC(=O)[C@H](CC(C)C)NC(=O)[C@H](CCCCN)NC(=O)[C@@H](N)CC(C)C)C(=O)N[C@H](C(=O)N[C@@H](CO)C(=O)N[C@@H](Cc1c[nH]c2ccccc12)C(=O)NCCCC[C@@H]1NC(=O)[C@H](Cc2c[nH]c3ccccc23)NC(=O)[C@H](CO)NC(=O)[C@@H](NC(=O)[C@@H](NC(=O)[C@H](CO)NC(=O)[C@H](CCCCN)NC(=O)[C@H](CC(C)C)NC(=O)[C@H](CCCCN)NC(=O)[C@@H](N)CC(C)C)[C@@H](C)CC)C(C)NCCCC[C@H](NC(=O)[C@H](CC(C)C)NC(=O)[C@H](CCCCN)NC(=O)[C@@H](N)CC(C)C)C(=O)N[C@@H](CO)C(=O)N[C@@H]([C@@H](C)CC)C(=O)N[C@@H](C(C)C)C(=O)N[C@@H](CO)C(=O)N[C@@H](Cc2c[nH]c3ccccc23)C(=O)NCCCC[C@H](NC(=O)[C@H](Cc2c[nH]c3ccccc23)NC(=O)[C@H](CO)NC(=O)[C@@H](NC(=O)[C@@H](NC(=O)[C@H](CO)NC(=O)[C@H](CCCCN)NC(=O)[C@H](CC(C)C)NC(=O)[C@H](CCCCN)NC(=O)[C@@H](N)CC(C)C)[C@@H](C)CC)C(C)C)C(=O)N[C@H](C(N)=O)CCCCNC1=O)C(C)C (stereo partly specified)
MIC (Escherichia coli [1]): 12.5 µM (≈ 57.6 µg/mL)

I: H-ALLKRIKTLLKK-NH2 / II: H-ALLKRIKTLLK / III: H-ALLKRIKTLL / IV: H-ALLKRIKTLL (amide I:11-IV:C, I:12-II:C, II:11-III:C)
MIC (Escherichia coli [1]): 25 µM

H-GRFKRFRKKL-OH
Stability [2]: Stable | Stability [3]: Unstable

H-TLLKKVLKAAAK-OH
Stability [2]: Stable | Stability [3]: Unstable

I: H-INLKAIAALAKKLLKK-NH2 / II: H-INLKAIAALAKKLLK / III: H-INLKAIAALAKKLL / IV: H-INLKAIAALAKKLL (amide I:15-IV:C, I:16-II:C, II:15-III:C)
MIC (Escherichia coli [1]): 12.5 µM

I: H-LSAAHSLAIGRRKK-NH2 / II: H-LSAAHSLAIGRRK / III: H-LSAAHSLAIGRR / IV: H-LSAAHSLAIGRR (amide I:13-IV:C, I:14-II:C, II:13-III:C)
MIC (Escherichia coli [1]): 25 µM

I: H-LLKKVLKAAAKKK-NH2 / II: H-LLKKVLKAAAKK / III: H-LLKKVLKAAAK / IV: H-LLKKVLKAAAK (amide I:12-IV:C, I:13-II:C, II:12-III:C)
IC20 (Klebsiella pneumoniae [4]): > 50 µM | Activity (Cell membrane [5]): Active | Activity (Cell membrane [6]): Active | MIC (Escherichia coli [1]): 1.5 µM | Activity (Cell membrane [7]): Dose-Dependent Effect | MIC (Klebsiella pneumoniae [8]): > 25 µM | IC20 (Escherichia coli [9]): 6 µM | Activity (Lipopolysaccharide (LPS)): Dose-Dependent Effect | Stability [2]: Stable | MIC (Enterococcus faecalis): > 25 µM | Activity (Cell membrane [10]): Active | Stability [3]: Stable | Activity (Erythrocyte [11]): Non-Toxic | Activity (RAW264.7): 100% | MIC (Pseudomonas aeruginosa): 6 µM | MBIC80 (Escherichia coli [12]): 50 µM | Activity (Cell membrane [13]): Active | MIC (Escherichia coli [14]): 6 µM | MIC (Staphylococcus aureus): > 25 µM | MIC (Klebsiella pneumoniae [15]): 12.5 µM | MBIC80 (Klebsiella pneumoniae [16]): 50 µM | Activity (Cell membrane [17]): Active

H-KKLLGKNWKLM-OH
Stability [2]: Unstable | Stability [3]: Unstable

I: H-LSAARSLAIGRRKK-NH2 / II: H-LSAARSLAIGRRK / III: H-LSAARSLAIGRR / IV: H-LSAARSLAIGRR (amide I:13-IV:C, I:14-II:C, II:13-III:C)
MIC (Escherichia coli [1]): 12.5 µM

I: H-KLLKRIKTLLKK-NH2 / II: H-KLLKRIKTLLK / III: H-KLLKRIKTLL / IV: H-KLLKRIKTLL (amide I:11-IV:C, I:12-II:C, II:11-III:C)
MIC (Escherichia coli [1]): 6 µM | MIC (Klebsiella pneumoniae [8]): 12.5 µM | MIC (Enterococcus faecalis): 25 µM | MIC (Pseudomonas aeruginosa): 6 µM | MIC (Escherichia coli [14]): 6 µM | MIC (Staphylococcus aureus): 3 µM | MIC (Klebsiella pneumoniae [15]): 6 µM | Activity (Erythrocyte [18]): Toxic

CC(C)C[C@H](NC(=O)[C@@H](NC(=O)[C@@H](NC(=O)[C@@H](N)CO)[C@@H](C)O)C(C)C)C(=O)N[C@H](C(=O)N[C@@H](CO)C(=O)N[C@@H](CCCCN)C(=O)N[C@@H](Cc1ccc(O)cc1)C(=O)N[C@@H](CCCNC(=N)N)C(=O)NCCCC[C@H](NC(=O)[C@H](CCCNC(=N)N)NC(=O)[C@H](Cc1ccc(O)cc1)NC(=O)[C@H](CCCCN)NC(=O)[C@H](CO)NC(=O)[C@@H](NC(=O)[C@H](CC(C)C)NC(=O)[C@@H](NC(=O)[C@@H](NC(=O)[C@@H](N)CO)[C@@H](C)O)C(C)C)[C@@H](C)O)C(=O)NCCCC[C@H](NC(=O)[C@H](CCCCNC(=O)[C@H](CCCNC(=N)N)NC(=O)[C@H](Cc1ccc(O)cc1)NC(=O)[C@H](CCCCN)NC(=O)[C@H](CO)NC(=O)[C@@H](NC(=O)[C@H](CC(C)C)NC(=O)[C@@H](NC(=O)[C@@H](NC(=O)[C@@H](N)CO)[C@@H](C)O)C(C)C)[C@@H](C)O)NC(=O)[C@H](CCCNC(=N)N)NC(=O)[C@H](Cc1ccc(O)cc1)NC(=O)[C@H](CCCCN)NC(=O)[C@H](CO)NC(=O)[C@@H](NC(=O)[C@H](CC(C)C)NC(=O)[C@@H](NC(=O)[C@@H](NC(=O)[C@@H](N)CO)[C@@H](C)O)C(C)C)[C@@H](C)O)C(N)=O)[C@@H](C)O (HELM PEPTIDE1{S.T.V.L.T.S.K.Y.R.K.K.[am]}|PEPTIDE2{S.T.V.L.T.S.K.Y.R.K}|PEPTIDE3{S.T.V.L.T.S.K.Y.R}|PEPTIDE4{S.T.V.L.T.S.K.Y.R}$PEPTIDE1,PEPTIDE4,10:R3-9:R2|PEPTIDE1,PEPTIDE2,11:R3-10:R2|PEPTIDE2,PEPTIDE3,10:R3-9:R2$$$V2.0)
MIC (Escherichia coli [1]): 25 µM (≈ 114 µg/mL)

I: H-GIIDIAKKLFESWKK-NH2 / II: H-GIIDIAKKLFESWK / III: H-GIIDIAKKLFESW / IV: H-GIIDIAKKLFESW (amide I:14-IV:C, I:15-II:C, II:14-III:C)
MIC (Escherichia coli [1]): 12.5 µM

H-LLKKVLKAAAK-OH
Stability [2]: Unstable | Stability [3]: Unstable

I: H-LSAAHRLAIGRRKK-NH2 / II: H-LSAAHRLAIGRRK / III: H-LSAAHRLAIGRR / IV: H-LSAAHRLAIGRR (amide I:13-IV:C, I:14-II:C, II:13-III:C)
MIC (Escherichia coli [1]): 12.5 µM

I: H-KLLKFIKTLLKK-NH2 / II: H-KLLKFIKTLLK / III: H-KLLKFIKTLL / IV: H-KLLKFIKTLL (amide I:11-IV:C, I:12-II:C, II:11-III:C)
MIC (Escherichia coli [1]): 12.5 µM

CC[C@H](C)[C@H](N)C(=O)N[C@@H](CC(N)=O)C(=O)N[C@@H](CC(C)C)C(=O)N[C@@H](CCCCN)C(=O)N[C@@H](CCCCN)C(=O)N[C@@H](CC(C)C)C(=O)N[C@@H](C)C(=O)N[C@@H](CCCCN)C(=O)N[C@@H](CC(C)C)C(=O)NCCCC[C@H](NC(=O)[C@H](CC(C)C)NC(=O)[C@H](CCCCN)NC(=O)[C@H](C)NC(=O)[C@H](CC(C)C)NC(=O)[C@H](CCCCN)NC(=O)[C@H](CCCCN)NC(=O)[C@H](CC(C)C)NC(=O)[C@H](CC(N)=O)NC(=O)[C@@H](N)[C@@H](C)CC)C(=O)NCCCC[C@H](NC(=O)[C@H](CCCCNC(=O)[C@H](CC(C)C)NC(=O)[C@H](CCCCN)NC(=O)[C@H](C)NC(=O)[C@H](CC(C)C)NC(=O)[C@H](CCCCN)NC(=O)[C@H](CCCCN)NC(=O)[C@H](CC(C)C)NC(=O)[C@H](CC(N)=O)NC(=O)[C@@H](N)[C@@H](C)CC)NC(=O)[C@H](CC(C)C)NC(=O)[C@H](CCCCN)NC(=O)[C@H](C)NC(=O)[C@H](CC(C)C)NC(=O)[C@H](CCCCN)NC(=O)[C@H](CCCCN)NC(=O)[C@H](CC(C)C)NC(=O)[C@H](CC(N)=O)NC(=O)[C@@H](N)[C@@H](C)CC)C(N)=O
MIC (Escherichia coli [1]): 0.7 µM (≈ 3.14 µg/mL) | MIC (Klebsiella pneumoniae [8]): 6 µM (≈ 26.9 µg/mL) | MIC (Enterococcus faecalis): > 25 µM | MIC (Pseudomonas aeruginosa): 3 µM (≈ 13.5 µg/mL) | MIC (Escherichia coli [14]): 6 µM (≈ 26.9 µg/mL) | MIC (Staphylococcus aureus): > 25 µM | Activity (Erythrocyte [19]): Toxic | MIC (Klebsiella pneumoniae [15]): 12 µM (≈ 53.9 µg/mL)
